Source: US8940909B2, “Indicator platform” (Biosynth AG, priority 2009, dated 2015)

Test system: bacteria producing various biomarker enzymes
Experiment: IO staining of colonies of bacteria producing various biomarker enzymes (Table IVc)
Type: cell-based
Settings: for F: Fluorescence of colonies (hue): hue of fluorescence of stained colonies, 24 h on agar containing the indicator (Table IVc)
[1] = Bacillus cereus strain 51, plc +, 24 h on Tryptic Soy Agar, 0.78 mM PC PLC Indicator, 3.2 g/l BSA, 0.05% Tween80, 5 mM MnCl2
[2] = Bacillus cereus strain 191, plc +, 24 h on Tryptic Soy Agar, 0.78 mM PC PLC Indicator, 3.2 g/l BSA, 0.05% Tween80, 5 mM MnCl2
[3] = Bacillus cereus strain 192, plc +, 24 h on Tryptic Soy Agar, 0.78 mM PC PLC Indicator, 3.2 g/l BSA, 0.05% Tween80, 5 mM MnCl2
[4] = Bacillus cereus strain 289, plc +, 24 h on Tryptic Soy Agar, 0.78 mM PC PLC Indicator, 3.2 g/l BSA, 0.05% Tween80, 5 mM MnCl2
[5] = Bacillus mycoides strain 64, plc +, 24 h on Tryptic Soy Agar, 0.78 mM PC PLC Indicator, 3.2 g/l BSA, 0.05% Tween80, 5 mM MnCl2
[6] = Bacillus thuringiensis strain 66, plc +, 24 h on Tryptic Soy Agar, 0.78 mM PC PLC Indicator, 3.2 g/l BSA, 0.05% Tween80, 5 mM MnCl2
[7] = Escherichia coli strain 61, plc +/−, 24 h on Tryptic Soy Agar, 0.78 mM PC PLC Indicator, 3.2 g/l BSA, 0.05% Tween80, 5 mM MnCl2
[8] = Escherichia coli strain 270, plc +/−, 24 h on Tryptic Soy Agar, 0.78 mM PC PLC Indicator, 3.2 g/l BSA, 0.05% Tween80, 5 mM MnCl2
[9] = Listeria monocytogenes (4b) strain 290, plc +, 24 h on Tryptic Soy Agar, 0.78 mM PC PLC Indicator, 3.2 g/l BSA, 0.05% Tween80, 5 mM MnCl2
[10] = Pseudomonas aeruginosa strain 168, plc +, 24 h on Tryptic Soy Agar, 0.78 mM PC PLC Indicator, 3.2 g/l BSA, 0.05% Tween80, 5 mM MnCl2
[11] = Pseudomonas aeruginosa strain 168, plc +, 24 h on Tryptic Soy Agar, 0.78 mM PC PLC Indicator, 3.2 g/l BSA, 0.05% Tween80, 5 mM MnCl2, natural color, same on agar without substrate
[12] = Pseudomonas aeruginosa strain 168, plc +, 24 h on Tryptic Soy Agar, 0.78 mM PC PLC Indicator, 3.2 g/l BSA, 0.05% Tween80, 5 mM MnCl2, natural fluorescence, same on agar without substrate
[13] = Escherichia coli strain 61, glucuronidase +, 24 h on Nutrient Agar, 0.45 mM beta-D-Glucuronidase Indicator
[14] = Escherichia coli strain 62, glucuronidase +, 24 h on Nutrient Agar, 0.45 mM beta-D-Glucuronidase Indicator
[15] = Escherichia coli strain 270, glucuronidase +, 24 h on Nutrient Agar, 0.45 mM beta-D-Glucuronidase Indicator
[16] = Klebsiella pneumoniae strain 164, glucuronidase −, 24 h on Nutrient Agar, 0.45 mM beta-D-Glucuronidase Indicator
[17] = Bacillus cereus strain 289, 24 h on Nutrient Agar, 0.52 mM C1-Esterase Indicator
[18] = Escherichia coli strain 270, 24 h on Nutrient Agar, 0.52 mM C1-Esterase Indicator
[19] = Klebsiella pneumoniae strain 164, 24 h on Nutrient Agar, 0.52 mM C1-Esterase Indicator

## 1-[2-(2,4-Dimethoxybenzoyl)phenyl]-1H-indol-3-yl choline phosphate [Indicator I25d]
[1]
  C: Color of colonies: +
  F: Fluorescence of colonies: ++
  G: Growth of colonies: +
[2]
  C: Color of colonies: +
  F: Fluorescence of colonies: ++
  G: Growth of colonies: +
[3]
  C: Color of colonies: ++
  F: Fluorescence of colonies: ++
  G: Growth of colonies: +
[4]
  C: Color of colonies: +
  F: Fluorescence of colonies: ++
  G: Growth of colonies: +
[5]
  C: Color of colonies: +
  F: Fluorescence of colonies: ++
  G: Growth of colonies: +
[6]
  C: Color of colonies: +
  F: Fluorescence of colonies: ++
  G: Growth of colonies: +
[7]
  C: Color of colonies: +/−
  F: Fluorescence of colonies: +/−
  G: Growth of colonies: +
[8]
  C: Color of colonies: +/−
  F: Fluorescence of colonies: +/−
  G: Growth of colonies: +
[9]
  C: Color of colonies: −
  F: Fluorescence of colonies: −
  G: Growth of colonies: +
[10]
  G: Growth of colonies: +
[11]
  C: Color of colonies: y-g^1
[12]
  F: Fluorescence of colonies: b^2
  F: Fluorescence of colonies (hue): y-g

## 5-Bromo-4-chloro-1H-indol-3-yl choline phosphate [Indicator I4d, reference compound]
[1]
  C: Color of colonies: +/−
  F: Fluorescence of colonies: −
  G: Growth of colonies: +
[2]
  C: Color of colonies: +/−
  F: Fluorescence of colonies: −
  G: Growth of colonies: +
[3]
  C: Color of colonies: ++
  F: Fluorescence of colonies: −
  G: Growth of colonies: +
[4]
  C: Color of colonies: −
  F: Fluorescence of colonies: −
  G: Growth of colonies: +
[5]
  C: Color of colonies: +
  F: Fluorescence of colonies: −
  G: Growth of colonies: +
[6]
  C: Color of colonies: +/−
  F: Fluorescence of colonies: −
  G: Growth of colonies: +
[7]
  C: Color of colonies: +
  F: Fluorescence of colonies: −
  G: Growth of colonies: +
[8]
  C: Color of colonies: +/−
  F: Fluorescence of colonies: −
  G: Growth of colonies: +
[9]
  C: Color of colonies: −
  F: Fluorescence of colonies: −
  G: Growth of colonies: +
[10]
  G: Growth of colonies: +
[11]
  C: Color of colonies: y-g^1
[12]
  F: Fluorescence of colonies: b^2
  F: Fluorescence of colonies (hue): −

## O=C([O-])[C@H]1O[C@@H](Oc2c[nH]c3cc(Cl)ccc23)[C@H](O)[C@@H](O)[C@@H]1O.[Na+] [Indicator I3f, 6-Chloro-1H-indol-3-yl-beta-D-glucuronide sodium salt, reference compound]
[13]
  C: Color of colonies: +
  F: Fluorescence of colonies: −
  G: Growth of colonies: +
[14]
  C: Color of colonies: +
  F: Fluorescence of colonies: −
  G: Growth of colonies: +
[15]
  C: Color of colonies: +
  F: Fluorescence of colonies: −
  G: Growth of colonies: +
[16]
  C: Color of colonies: −
  F: Fluorescence of colonies: −
  G: Growth of colonies: +

## CC(=O)Oc1c[nH]c2ccc(Br)c(Cl)c12 [Indicator I4c, 5-Bromo-4-chloro-1H-indol-3-yl acetate, reference compound]
[17]
  C: Color of colonies: −
  F: Fluorescence of colonies: −
  G: Growth of colonies: −
[18]
  C: Color of colonies: −
  F: Fluorescence of colonies: −
  G: Growth of colonies: +/−
[19]
  C: Color of colonies: +
  F: Fluorescence of colonies: −
  G: Growth of colonies: +
  F: Fluorescence of colonies (hue): −

## CC(=O)Oc1cn(-c2ccccc2C(=O)c2ccccc2)c2ccccc12 [Indicator I19c, 1-(2-Benzoylphenyl)-1H-indol-3-yl acetate]
[17]
  C: Color of colonies: ++
  G: Growth of colonies: +
[18]
  C: Color of colonies: +/−
  G: Growth of colonies: +
[19]
  C: Color of colonies: +
  G: Growth of colonies: +
